# In US20140031217A1, “HERBICIDAL COMPOSITIONS COMPRISING 4-AMINO-3-CHLORO-5-FLUORO-6-(4-CHLORO-2-FLUORO-3-METHOXYPHENYL)PYRIDINE-2-CARBOXYLIC ACID OR A DERIVATIVE THEREOF AND AUXIN TRANSPORT INHIBITORS” (DOW AGROSCIENCES LLC, priority 2012, published 2014):
# Columns and labels:
# BRAPP = assay: Postemergence foliar-applied greenhouse weed control, BRAPP; assay type: in vivo, Brachiaria platyphylla (Griseb.) Nash
# Text: (§1) Seeds or nutlets of the desired test plant species were planted in a soil matrix prepared by mixing a loam or sandy loam soil (e.g., 28.6 percent silt, 18.8 percent clay, and 52.6 percent sand, with a pH of about 5.8 and an organic matter content of about 1.8 percent) and calcareous grit in an 80 to 20 ratio. The soil matrix was contained in plastic pots with a volume of 1 quart and a surface area of 83.6 square centimeters (cm^2). When required to ensure good germination and healthy plants, a fungicide treatment and/or other chemical or physical treatment was applied. The plants were grown for 8-22 days in a greenhouse with an approximate 14 h photoperiod which was maintained at about 29° C. during the day and 26° C. during the night. Nutrients (Peters Excel® 15-5-15 5-Ca 2-Mg and iron chelate) were applied in the irrigation solution as needed and water was added on a regular basis. Supplemental lighting was provided with overhead metal halide 1000-Watt lamps as necessary. The plants were employed for testing when they reached the first through fourth true leaf stage.
# (§2) Treatments consisted of the acid or esters of 4-amino-3-chloro-5-fluoro-6-(4-chloro-2-fluoro-3-methoxy-phenyl) pyridine-2-carboxylic acid (Compound A), each formulated as an SC (suspension concentrate), and various herbicidal components alone and in combination. Forms of compound A were applied on an acid equivalent basis.
# (§3) Other herbicidal components were applied on an active ingredient basis and included auxin transport inhibiting (ATI) herbicides chlorflurenol (technical material), chlorflurenol-methyl (technical material), diflufenzopyr (technical material), diflufenzopyr sodium (technical material), flurenol-methyl (technical material) and naptalam (technical material).
# (§4) Treatment requirements were calculated based upon the rates being tested, the concentration of active ingredient or acid equivalent in the formulation, and a 12 mL application volume at a rate of 187 L/ha.
# (§5) For treatments comprised of formulated and technical compounds, weighed amounts of the technical materials were placed individually in 25 mL glass vials and dissolved in a volume of 97:3 v/v acetone/DMSO to obtain 12× stock solutions, and measured amounts of the formulated compounds were placed individually in 25 mL glass vials and diluted in a volume of 1.5% (v/v) crop oil concentrate or water to obtain 12× stock solutions. […] Application solutions were prepared by adding an appropriate amount of each stock solution (e.g., 1 mL) and diluted to the appropriate final concentrations with the addition of an appropriate amount of an aqueous mixture of 1.5% (v/v) crop oil concentrate so that the final spray solutions contained 1.25% (v/v) crop oil concentrate. When required, additional water and/or 97:3 v/v acetone/DMSO was added to individual application solutions so that the final acetone and DMSO concentrations of the application solutions being compared were 8.1% and 0.25%, respectively.
# (§6) All stock solutions and applications solutions were visually inspected for compound compatibility prior to application. Spray solutions were applied to the plant material with an overhead Mandel track sprayer equipped with an 8002E nozzle calibrated to deliver 187 L/ha over an application area of 0.503 m^2 at a spray height of 18 to 20 inches (46 to 50 cm) above average plant canopy height. Control plants were sprayed in the same manner with the solvent blank.
# (§7) The treated plants and control plants were placed in a greenhouse as described above and watered by sub-irrigation to prevent wash-off of the test compounds. After approximately 3 weeks, the condition of the test plants as compared with that of the untreated plants was determined visually and scored on a scale of 0 to 100 percent where 0 corresponds to no injury or growth inhibition and 100 corresponds to complete kill. […]
# CYPIR = assay: Postemergence foliar-applied greenhouse weed control, CYPIR; assay type: in vivo, Cyperus iria L.
# Text: as §1, §2, §3, §4, §5, §6, §7
# LEFCH = assay: In-water applied (paddy) greenhouse weed control, LEFCH; assay type: in vivo, Leptochloa chinensis (L.) Nees; settings: 20 DAA
# Method: Weed seeds or nutlets of the desired test plant species were planted in puddled soil (mud) prepared by mixing a shredded, non-sterilized mineral soil (50.5 percent silt, 25.5 percent clay, and 24 percent sand, with a pH of about 7.6 and an organic matter content of about 2.9 percent) and water at a 1:1 volumetric ratio. The prepared mud was dispensed in 365 mL aliquots into 16-ounce (oz.) non-perforated plastic pots with a surface area of 86.59 square centimeters (cm^2) leaving a headspace of 3 centimeters (cm) in each pot. Mud was allowed to dry overnight prior to planting or transplanting. Rice seeds were planted in Sun Gro MetroMix® 306 planting mixture, which typically has a pH of 6.0 to 6.8 and an organic matter content of about 30 percent, in plastic plug trays. Seedlings at the second or third leaf stage of growth were transplanted into 840 mL of mud contained in 32-oz. non-perforated plastic pots with a surface area of 86.59 cm^2 4 days prior to herbicide application. The paddy was created by filling the headspace of the pots with 2.5 to 3 cm of water. When required to ensure good germination and healthy plants, a fungicide treatment and/or other chemical or physical treatment was applied. The plants were grown for 4-22 days in a greenhouse with an approximate 14 h photoperiod which was maintained at about 29′C during the day and 26° C. during the night. Nutrients were added as Osmocote® (19:6:12, N:P:K+minor nutrients) at 2 g per 16-oz. pot and 4 g per 960-mL 32-oz. pot. Water was added on a regular basis to maintain the paddy flood, and supplemental lighting was provided with overhead metal halide 1000-Watt lamps as necessary. The plants were employed for testing when they reached the second or third true leaf stage.
# Treatments consisted of the acid or esters of 4-amino-3-chloro-5-fluoro-6-(4-chloro-2-fluoro-3-methoxy-phenyl)pyridine-2-carboxylic acid (compound A) each formulated as an SC and various herbicidal components alone and in combination. Forms of compound A were applied on an acid equivalent basis.
# Other herbicidal components were applied on an active ingredient basis and included auxin transport inhibiting (ATI) herbicides chlorflurenol-methyl (technical material), chlorflurenol (technical material), diflufenzopyr (technical material), dilfufenzopyr sodium (technical material), flurenol-methyl (technical material,) and naptalam (technical material).
# Treatment requirements for each compound or herbicidal component were calculated based upon the rates being tested, the concentration of active ingredient or acid equivalent in the formulation, an application volume of 2 mL per component per pot, and an application area of 86.59 cm^2 per pot.
# For formulated compounds, a measured amount was placed in an individual 100 or 200 mL glass vial and was dissolved in a volume of 1.25% (v/v) Agri-Dex® crop oil concentrate to obtain application solutions.
# For technical grade compounds, a weighed amount was placed in an individual 100 to 200 mL glass vial and was dissolved in a volume of acetone to obtain concentrated stock solutions. […] The concentrated stock solutions obtained were diluted with an equivalent volume of an aqueous mixture containing 2.5% (v/v) crop oil concentrate so that the final application solutions contained 1.25% (v/v) crop oil concentrate.
# Applications were made by injecting with a pipetter appropriate amounts of the application solutions, individually and sequentially, into the aqueous layer of the paddy. Control plants were treated in the same manner with the solvent blank. Applications were made so that all treated plant material received the same concentrations of acetone and crop oil concentrate.
# The treated plants and control plants were placed in a greenhouse as described above and water was added as needed to maintain a paddy flood. […]
smiles,measurement,setting,value
COc1c(Cl)ccc(-c2nc(C(=O)OCc3ccccc3)c(Cl)c(N)c2F)c1F [Compound A Benzyl Ester],Visual Weed Control (%) Obs,"BRAPP; 21 DAA, 4.38 gae/ha",70%
same,Visual Weed Control (%) Obs,"BRAPP; 21 DAA, 8.75 gae/ha",75%
same,Visual Weed Control (%) Obs,"BRAPP; 21 DAA, 17.5 gae/ha",95%
same,Visual Weed Control (%) Obs,"BRAPP; 22 DAA, 8 gae/ha",35%
same,Visual Weed Control (%) Obs,"BRAPP; 22 DAA, 16 gae/ha",80%
same,Visual Weed Control (%) Obs,"CYPIR; 20 DAA, 4.38 gae/ha",70%
same,Visual Weed Control (%) Obs,"CYPIR; 22 DAA, 8 gae/ha",30%
same,Visual Weed Control (%) Obs,LEFCH; 4.38 gae/ha,0%
same,Visual Weed Control (%) Obs,LEFCH; 8.75 gae/ha,20%
same,Visual Weed Control (%) Obs,LEFCH; 17.5 gae/ha,30%
"COc1c(Cl)ccc(-c2nc(C(=O)O)c(Cl)c(N)c2F)c1F [Compound A Acid, 4-amino-3-chloro-6-(4-chloro-2-fluoro-3-methoxyphenyl)-5-fluoropyridine-2-carboxylic acid]",Visual Weed Control (%) Obs,"BRAPP; 21 DAA, 8.75 gae/ha",60%
same,Visual Weed Control (%) Obs,"CYPIR; 20 DAA, 4.38 gae/ha",30%
same,Visual Weed Control (%) Obs,LEFCH; 8.75 gae/ha,20%
same,Visual Weed Control (%) Obs,LEFCH; 17.5 gae/ha,0%
same,Visual Weed Control (%) Obs,LEFCH; 35 gae/ha,30%
